Entries after “also recorded” stand apart in the source; their conditions may differ.
Legend:
intrahepatic cholestasis = settings: cited from earlier work
[1] = in words, background; cited from earlier work
[2] = test system: bile flow reduction induced by estradiol-17β-D-glucuronide (E-17-G); test: Ameliorative effect against cholestasis in rats (E-17-G-induced reduction of bile flow); type: in vivo, female SD rats
Method: An extra external-biliary fistula was developed in female SD rats under anesthesia and, after bile collection for 30 minutes, estradiol-17β-D-glucuronide (E-17-G) was administered via their femoral veins as a single dose of 10 μ mole/kg. Immediately after the administration, tauroursodeoxycholic acid was continuously administered over two hours via the femoral veins at a rate of 0.6 μ mole/min/100 g body weight, and the bile flow was measured serially.

[3] = test system: patients with cholestasis; test: Clinical results of tauroursodeoxycholic acid injection (patients with cholestasis / jaundice); type: in vivo, human (patients)
Method: Since tylosis of the gallbladder walls was observed by abdominal ultrasonic imaging and there were severe icteric symptoms, this case was diagnosed as cholestasis due to drug-induced hepatopathy.
At a stage when moderate jaundice still remained (total bilirubin: 6.9 mg/dl) and no improvement had been noted in subjective symptoms such as skin itching and epigastric discomfort, tauroursodeoxycholic acid was intravenously injected once a day at a dose of 100 mg for 14 days. As a result, the total bilirubin level, GOT and GPT were decreased to 2.1 mg/dl, 45 U/l and 36 U/l, respectively, and the icteric symptoms as well as the subjective symptoms such as skin itching and epigastric discomfort were disappeared.
[…] After the patient came back to Japan on April 5 and was hospitalized, tauroursodeoxycholic acid was intravenously administered once a day at a dose of 100 mg for 14 days.
At a stage when moderate jaundice was observed (total bilirubin: 9.0 mg/dl, GOT: 838 U/l, GPT 451 U/l), tauroursodeoxycholic acid was administered once a day at a dose of 300 mg by intravenous drip infusion for 14 days.
This patient was diagnosed to suffer from cholestasis due to acute viral hepatitis based on results of immuno-serological test including GOT of 11600 U/l, GPT of 6300 U/l and total bilirubin level of 7.7 mg/dl and HBV positive result of virological test as well as severe icteric symptoms.
At a stage when jaundice was still severe (total bilirubin: 16.19 mg/dl), tauroursodeoxycholic acid was administered once a day at a dose of 300 mg by intravenous drip infusion for 14 days. As a result, the total bilirubin level, GOT and GPT were decreased to 4.4 mg/dl, 48 U/l and 36 U/l, respectively, icteric symptoms were improved from the day after one week of the administration and subjective symptoms such as skin itching and systemic malaise were disappeared by the 10th day of the administration.
This patient began to feel general malaise in late June 1993 and, since jaundice appeared on Jun. 28, they visited a neighboring clinic and received treatment. In spite of that, jaundice was not improved and they referred to our medical institution on July 5. Based on the results of inspections, the patient was diagnosed to suffer cholestasis due to acute viral hepatitis (type B).
Tauroursodeoxycholic acid was administered by intravenous injection once a day at a dose of 600 mg for 18 days from July 8.
This patient noticed jaundice in the middle of May 1993 and consulted a doctor. Their symptom was diagnosed as obstructive jaundice based on images of enlargement of the bilateral intrahepatic bile ducts and 3-4 cm long irregular stenosis in the choledoch observed in endoscopic retrograde cholangiopancreatography (ERCP) and underwent endoscopic […] bile duct drainage (ENBD) on May 31.
Because icteric symptoms were not improved, tauroursodeoxycholic acid was intravenously injected once a day at a dose of 100 mg for 22 days.
This patient was diagnosed to suffer from pancreatic cancer by ERCP. […] Concurrently, icteric symptoms and skin itching were continued. Therefore, tauroursodeoxycholic acid was intravenously injected once a day at a dose of 600 mg for 38 days. As a result, the total bilirubin level was decreased to 3.3 mg/dl, the bile flow was increased from the preadministration level of 230 ml/day to 440 ml/day, and icteric symptoms and skin itching were improved.

[4] = Acute toxicity (LD50), intravenous, rats; design: species or system 6-week old CD rats; settings: rat, in vivo
Method: (§1) The acute toxicity (LD50) of intravenously administered tauroursodeoxycholic acid was evaluated in 6-week old male and female CD rats and 8 to 11-month old male and female beagle dogs. The LD50 was 600 to 800 mg/kg in male rats and 800 to 1000 mg/kg in female rats.

[5] = test system: hepatic injury induced by α-naphthylisothiocyanate (ANIT); test: Protective effect against hepatic injury in mice (ANIT); type: in vivo, male ICR mice
Method: Tauroursodeoxycholic acid was administered to male ICR mice via their caudal veins at a dose within a range of 100 to 1200μ mole/kg two hours before and two hours after an administration of α-naphthylisothiocyanate (ANIT) as a single dose of 80 mg/kg. Serum bilirubin concentration, total bile acid concentration and LDH activity were measured two days after the ANIT administration.

[6] = Acute toxicity (LD50), intravenous, beagle dogs; design: species or system 8 to 11-month old beagle dogs; settings: dog, in vivo, both sexes
Method: as §1

Solubility in water = type: physicochemical; settings: in words
[7] = Example 2 patient, 100 mg i.v. once a day for 14 days, from the day after three days of the administration
[8] = Example 5 patient, 600 mg i.v. once a day for 18 days
[9] = Example 6 patient, obstructive jaundice, ENBD, 100 mg i.v. once a day for 22 days, after one week
[10] = 100 to 1200 μ mole/kg via caudal veins two hours before and two hours after ANIT 80 mg/kg, two days after ANIT

CCC1(c2ccccc2)C(=O)NC(=O)NC1=O [phenobarbital]
efficacy in the treatment of intrahepatic cholestasis (intrahepatic cholestasis; steroid and phenobarbital preparations currently used): a certain level of, but often insufficient, efficacy

C[C@H](CCC(=O)O)[C@H]1CC[C@H]2[C@@H]3[C@@H](O)C[C@@H]4C[C@H](O)CC[C@]4(C)[C@H]3CC[C@]12C [ursodeoxycholic acid]
efficacy against intrahepatic cholestasis (intrahepatic cholestasis; ursodeoxycholic acid preparations, recently reported in Japan and other countries): very high efficacy
solubility [1]: very low

C[C@H](CCC(=O)NCCS(=O)(=O)O)[C@H]1CC[C@H]2[C@@H]3[C@@H](O)C[C@@H]4C[C@H](O)CC[C@]4(C)[C@H]3CC[C@]12C [tauroursodeoxycholic acid]
infusion rate at or above which the reduction of the bile flow induced by E-17-G was inhibited ([2]; female SD rats, E-17-G 10 μ mole/kg i.v., continuous infusion over two hours via femoral veins): ≥ 0.3 μ mole/min/100 g body weight
inhibition of the reduction of bile flow compared with free ursodeoxycholic acid ([2]; female SD rats, E-17-G 10 μ mole/kg i.v., comparator free ursodeoxycholic acid): more marked than that of free ursodeoxycholic acid
cholagogue effect ([2]; general conclusion): exerts cholagogue effect
total bilirubin level ([3]; Example 1 patient, drug-induced hepatopathy, 100 mg i.v. once a day for 14 days, before: 6.9 mg/dl): 2.1 mg/dL
GOT ([3]; Example 1 patient, drug-induced hepatopathy, 100 mg i.v. once a day for 14 days, peak before: 548 U/l): 45 U/l
GPT ([3]; Example 1 patient, drug-induced hepatopathy, 100 mg i.v. once a day for 14 days, peak before: 664 U/l): 36 U/l
icteric symptoms and subjective symptoms such as skin itching and epigastric discomfort ([3]; Example 1 patient, 100 mg i.v. once a day for 14 days): disappeared
total bile acid level ([3]; Example 2 patient, acute viral hepatitis, 100 mg i.v. once a day for 14 days, before: 21 μmole/l): 12 µmol/L
total bilirubin level ([3]; Example 2 patient, acute viral hepatitis, 100 mg i.v. once a day for 14 days, before: 31.4 mg/dl): 13.7 mg/dL
icteric symptoms [3, 7]: improvement of icteric symptoms
subjective symptoms such as skin itching and anorexia [3, 7]: disappeared
total bilirubin level ([3]; Example 3 patient, drug-induced hepatopathy, 300 mg once a day i.v. drip infusion for 14 days, before: 9.0 mg/dl): 2.8 mg/dL
icteric symptoms due to cholestasis ([3]; Example 3 patient, 300 mg once a day i.v. drip infusion for 14 days): improvement in icteric symptoms
GPT ([3]; Example 3 patient, 300 mg once a day i.v. drip infusion for 14 days, before: 451 U/l): 145 U/l
GOT ([3]; Example 3 patient, 300 mg once a day i.v. drip infusion for 14 days, before: 838 U/l): 171 U/l
total bilirubin level, GOT and GPT after completion of administration ([3]; Example 3 patient, two weeks after the completion of 300 mg once a day i.v. drip infusion for 14 days): no increase was observed
total bilirubin level ([3]; Example 4 patient, acute viral hepatitis (HBV positive), 300 mg once a day i.v. drip infusion for 14 days, before: 16.19 mg/dl): 4.4 mg/dL
GPT ([3]; Example 4 patient, 300 mg once a day i.v. drip infusion for 14 days, at diagnosis: 6300 U/l): 36 U/l
GOT ([3]; Example 4 patient, 300 mg once a day i.v. drip infusion for 14 days, at diagnosis: 11600 U/l): 48 U/l
subjective symptoms such as skin itching and systemic malaise ([3]; Example 4 patient, 300 mg once a day i.v. drip infusion, by the 10th day of the administration): disappeared
icteric symptoms ([3]; Example 4 patient, 300 mg once a day i.v. drip infusion, from the day after one week of the administration): improved
total bilirubin level ([3]; Example 5 patient, acute viral hepatitis (type B), 600 mg i.v. once a day, after 4 days): reduced by half
total bilirubin level ([3]; Example 5 patient, acute viral hepatitis (type B), 600 mg i.v. once a day, after one week): almost within the normal range
icteric symptoms and general malaise [3, 8]: disappeared
other parameters related to the liver function [3, 8]: improved
jaundice and skin itching ([3]; Example 6 patient, obstructive jaundice, ENBD, 100 mg i.v. once a day for 22 days): improvement of jaundice and skin itching
bile flow [3, 9]: apparent increase of bile flow
total bilirubin level [3, 9]: decrease of the total bilirubin level
icteric symptoms and skin itching ([3]; Example 7 patient, pancreatic cancer, PTCD, 600 mg i.v. once a day for 38 days): improved
total bilirubin level ([3]; Example 7 patient, pancreatic cancer, PTCD, 600 mg i.v. once a day for 38 days, before: around 15 mg/dl): 3.3 mg/dL
bile flow ([3]; Example 7 patient, pancreatic cancer, PTCD, 600 mg i.v. once a day for 38 days, preadministration 230 ml/day): 440 mL/day
ameliorative effect against cholestasis ([3]; general finding, patients with liver diseases): ameliorative effect against cholestasis
LD50 ([4]; female rats): 800 to 1000 mg/kg
LD50 ([4]; male rats): 600 to 800 mg/kg
increase of LDH activity induced by ANIT [5, 10]: inhibited
increase of serum bilirubin concentration induced by ANIT [5, 10]: inhibited
increase of total bile acid concentration induced by ANIT [5, 10]: inhibited
protective effect of hepatocyte ([5]; general conclusion): protective effect of hepatocyte
LD50 [6]: 300 to 600 mg/kg
solubility in water (Solubility in water): better solubility in water as compared with ursodeoxycholic acid; also recorded: high solubility in water; also recorded: excellent solubility in water

From patent publication US5863550A, “Cholestasis ameliorant” (Tokyo Tanabe Company Limited, priority 1993, dated 1999)
